The text below walks through data of article PMC6408276 (ACS infectious diseases, 2019).

Values joined by “and” are separate entries in the source; they are usually repeats but may differ in a detail not shown here. Identical values can stand only once.

For data set [1], the system named is Colombiana strain of Trypanosoma cruzi. In words: Mouse model of T. cruzi infection: parasitemia, survival and natural relapse. In kind it is in vivo.
Data set [2] shares this test system. In words: Assessment of therapeutic failure after cyclophosphamide immunosuppression. It counts as in vivo. As to conditions: for Blood parasite load determined by qPCR: n=5, after cyclophosphamide; for Blood parasite load determined by qPCR / % Negative blood qPCR: VFV in 10 % DMSO plus 5 % Gum Arabic; for % Blood parasite clearence (negative qPCR): n=10, after cyclophosphamide immunosuppression, VFV in DGAT; for % Negative blood qPCR: surviving mice n=5, after cyclophosphamide. (In general: Real-time PCR tracks product formation cycle by cycle.)

Data set [3] can be described thus: PK studies in mice after single oral administration. As to conditions: for Life time (time until compound becomes undetectable, below 0.1 μM): mice plasma; for Life time (time until compound becomes undetectable, below 0.1 μM) / Bioavailability when Tween 80 was added to the vehicle (DGAT vs HPCD): single oral 25 mg/kg; for Bioavailability when Tween 80 was added to the vehicle (DGAT vs HPCD): mice; for Tmax: mouse, po, 25 mg/kg. It counts as in vivo.

For the next data set, the system named is NIH/3T3. Conditions: cited from earlier work.
The conditions of data set [4]: cited from earlier work.
For data set [5] the following is noted: cited from earlier work. The source holds these as a separate data set.
The subject of the next data set is CYP3A4. Conditions: read-out: CYP3A4 IC50; cited from earlier work.
For data set [6] the following is noted: cited from earlier work. The source holds these as a separate data set.
The mark [7] stands for this setting: Swiss male mice n=5, 60 days po, VNI and VFV in 10 % DMSO plus 5 % Gum Arabic.
Setting [8] is: Swiss male mice n=10, 60 days po, VFV in DGAT.

In the case of `O=C(Cn1ccnc1[N+](=O)[O-])NCc1ccccc1` [Bz, benznidazole, reference compound], in data set [1] (setting [7]), the “% Animal survival” value turned out to be 100%; the “Natural relapse after the therapy” value was “all animals and 5 out of 5 mice”. Further, in data set [1] (setting [8]), the “% Animal survival” value is given as 100%; the “Natural relapse after the therapy” value is 6 mice and 6 out of 10 mice. For the same molecule, in data set [2], the “Blood parasite load determined by qPCR” value is on record as 13038 ± 13612, the “% Blood parasite clearence (negative qPCR)” value turned out to be 30% and the “% Negative blood qPCR” value amounted to 0%.
In general, Tmax refers to the time from dosing to the highest level. One may read the IC50 as the midpoint of a concentration-inhibition curve. For the molecule `O=C(N[C@@H](Cn1ccnc1)c1ccc(-c2ccc(F)cc2)cc1F)c1ccc(-c2nnc(-c3ccccc3)o2)cc1` [VFV, (R)-N-(1-(3,4′-difluorobiphenyl-4-yl)-2-(1H-imidazol-1-yl)ethyl)-4-(5-phenyl-1,3,4oxadiazol-2-yl)benzamide], in data set [1] (setting [7]), the “% Animal survival” value is recorded as 100%; the “Natural relapse after the therapy” value was “all animals and 5 out of 5 mice”. Besides, in data set [1] (setting [8]), the “% Animal survival” value was found to be 100%; the “% Parasitemia suppression” value amounted to 99.8%; the “Natural relapse after the therapy” value is 5 mice and 5 out of 10 mice. Moreover, in data set [2], the “Blood parasite load determined by qPCR” value stood at 905 ± 854, the “% Blood parasite clearence (negative qPCR)” value was 0% and the “% Negative blood qPCR” value stood at 0%. The “Life time (time until compound becomes undetectable, below 0.1 μM)” value (from here on “Life time”) in data set [3] (HPCD formulation) was below 24 h. Also, in data set [3], the “Bioavailability when Tween 80 was added to the vehicle (DGAT vs HPCD)” value was “three-fold higher bioavailability”. Further, the Tmax in data set [3] (in vivo) came out at 4 h. Also, in the data set with NIH/3T3, the “EC25 (cellular toxicity)” value was above 50 µM. Moreover, the Hepatic clearance entry in data set [4] is listed as “moderate hepatic clearance”. For the same molecule, in data set [5], the “NOAEL (in vivo toxicity)” value is listed as above 200 mg/kg. Moreover, the IC50 with CYP3A4 was 3.6 µM.
Regarding `O=C(N[C@@H](Cn1ccnc1)c1ccc(Cl)cc1Cl)c1ccc(-c2nnc(-c3ccccc3)o2)cc1` [VNI, (R)-N-(1-(2,4-dichlorophenyl)-2-(1H-imidazol-1-yl)ethyl)-4-(5-phenyl-1,3,4-oxadi-azol-2 yl)benzamide], in data set [1] (setting [7]), the “% Animal survival” value amounted to 100%; the “% Parasitemia suppression” value is given as 99.9%; the “Natural relapse after the therapy” value was 3 out of five and 3 out of 5 mice. Also, in data set [2], the “Blood parasite load determined by qPCR” value was determined as 372 ± 528 and the “% Negative blood qPCR” value is 20%. Moreover, the “Sustained negative parasitemia after cyclophosphamide (light microscopy)” value in data set [2] (n=5, 10 % DMSO plus 5 % Gum Arabic vehicle) is reported as 20%. The “Life time” value in data set [3] (DGAT formulation) came out at 16 h. For the same molecule, the “Life time” value in data set [3] (HPCD formulation) was determined as 10 h. Further, the “Bioavailability when Tween 80 was added to the vehicle (DGAT vs HPCD)” value in data set [3] is listed as “three-fold higher bioavailability”. For the same molecule, the time of peak concentration (Tmax) in data set [3] (plasma) was determined as 2 h.
With `CC[C@@H]([C@H](C)O)n1ncn(-c2ccc(N3CCN(c4ccc(OC[C@@H]5CO[C@@](Cn6cncn6)(c6ccc(F)cc6F)C5)cc4)CC3)cc2)c1=O` [posaconazole, reference compound], the “Maximal concentration in mice plasma” value in data set [6] was […]. Besides, in the data set with CYP3A4, the IC50 was […].
